# Earlier results in US20220347313A1, “Combination Anti-CD30 ADC, Anti-PD-1 and Chemotherapeutic for Treatment of Hematopoietic Cancers” (SEAGEN, INC., priority 2019, published 2022).
# Tested on: CD28, ICOS, CTLA-4 and BTLA
substance,measurement,value
nivolumab,binding specificity for PD-1 versus related CD28 family members,binds specifically to PD-1 and not to related members of the CD28 family
